{
  "source": "patent US11628172B2",
  "about": "“Methods of treating chronic lymphocytic leukemia using 2-(2,6-dioxopiperidin-3-yl)-4-((2-fluoro-4-((3-morpholinoazetidin-1-yl)methyl)benzyl)amino)isoindoline-1,3-dione” (Celgene Corporation, priority 2019, dated 2023)",
  "test_system": "primary CLL cells from patient-derived blood (CD5+CD19+ tumor cells)",
  "assay": "Compound 1 in combination with obinutuzumab in B-cell CLL patient cells (ex vivo co-culture, flow cytometry, Caspase3)",
  "assay_type": "cell-based, human",
  "settings": "144 h",
  "protocol": "Obinutuzumab (GA101) is a humanized, glycoengineered type 2 antibody targeted against CD20. […] The effect of treatment with Compound 1 in combination with obinutuzumab on the proliferation and survival of CLL B cells was assessed utilizing an ex vivo model where primary CLL cells from patient-derived blood were stimulated to proliferate with 10% fetal bovine serum (FBS), 5 ng/mL recombinant human interleukine-4 (rh IL-4), 10 ng/mL recombinant human interleukine-10 (rh IL-10) and co-cultured with fibroblast expressing surface CD154 (CD40L) in a 96 well plate format.\nPeripheral blood mononuclear cells (PBMCs) from CLL patients (Table 7) containing 52%-86% of CD5^+CD19^+ tumor cells were cultured at a density of 0.06-0.1×10^6 cells/well on a monolayer of CD154-expressing fibroblasts at a density of 0.09×10^6 cells/well in 96-well plates in RPMI 1640 medium supplemented with 10% FBS, 5 ng/mL rh IL-4 and 10 ng/mL rh IL-10. The cells were treated with vehicle control (0.1% DMSO) or increasing concentrations of Compound 1 ranging from 0.0001 to 1 μM and GA101 at concentrations ranging from 8 ng/mL to 5 ug/mL across all the different concentrations of Compound 1. After 144 h of treatment with both the agents, flow cytometric analysis was used to determine the number of tumor cells that were viable or apoptotic.\nThe tumor cell count was assessed by staining the patient PBMCs in each condition with tumor cell surface markers CD5 & CD19 along with Live/Dead fixable dye to exclude the dead cells and followed by intracellular staining for Caspase3 antibody to identify the apoptotic cells and was measured by flow cytometry (Attune NxT, Thermo Fisher). The live tumor cell count for each condition was calculated by normalizing to the precision count beads added to each sample.\nThe live tumor cell count was then normalized to the DMSO control (considered as 100% viable) to calculate the percentage of viable cells remaining after treatment. The normalized percentage of tumor cells was then represented as a heat map using Graph Pad Prism 8.0.0 to indicate the degree of tumor toxicity for each of the combinations (FIG. 1). Based on the data shown in FIG. 1, synergy/additivity calculations were performed using the HSA and Bliss Independence Model.\nFor apoptosis analysis, the percentage of apoptosis combining both “early” (Caspase 3 positive and Live-Dead fixable dye negative) and “late” apoptosis (Caspase 3 and Live-Dead fixable dye positive) cell gates subtracting the baseline DMSO value was graphed using GraphPad Prism 8.0.0.0. The Ymax (maximal percentage of apoptosis achieved) values from apoptosis curves were calculated by performing a nonlinear regression curve fitting using log(agonist) vs. normalized response—Variable slope analysis and identifying the maximum value on GraphPad Prism 8.0.0 (Table 8).",
  "data": [
    {"substance": "Obinutuzumab: humanized, glycoengineered type 2 antibody targeted against CD20", "values": [
      {"measurement": "induction of apoptosis (in words)", "setting": "CLL patient cells Pt 11-14, Table 8", "value": "induced apoptosis alone"},
      {"measurement": "Ymax of Pt 11 (%)", "setting": "Pt 11, single agent (Cpd1 DRC with DMSO, or obinutuzumab alone), apoptosis (Caspase 3), DMSO baseline subtracted", "value": 27.98, "unit": "%"},
      {"measurement": "Ymax of Pt 12 (%)", "setting": "Pt 12, single agent (Cpd1 DRC with DMSO, or obinutuzumab alone), apoptosis (Caspase 3), DMSO baseline subtracted", "value": 24.91, "unit": "%"},
      {"measurement": "Ymax of Pt 13 (%)", "setting": "Pt 13, single agent (Cpd1 DRC with DMSO, or obinutuzumab alone), apoptosis (Caspase 3), DMSO baseline subtracted", "value": 35.87, "unit": "%"},
      {"measurement": "Ymax of Pt 14 (%)", "setting": "Pt 14, single agent (Cpd1 DRC with DMSO, or obinutuzumab alone), apoptosis (Caspase 3), DMSO baseline subtracted", "value": 25.82, "unit": "%"}
    ]}
  ]
}
